Measured values reported in patent publication US20260297060A1, “COMPOUNDS FOR THE DEGRADATION OF MUTANT BRAF” (C4 THERAPEUTICS, INC., priority 2023, published 2026).

System: A375 human melanoma xenografts
Assay: In vivo therapeutic efficacy in A375 human melanoma xenografts (tumor volume, T/C, TGI), Example 14
Set-up: species or system human tumor in female BALB/c nude mice
Conditions: for Tumor volume: mean ± SEM; for T/C / TGI: PG-D21
Method: Agents were tested in the A375 human melanoma xenografts. Compound 26 and Compound 141 were administered to BALB/c nude mice bearing A375 tumors from PG-DO and dosed via PO twice a day (BID) or third a day (TIP) or dosed P daily (QD) from PG-D. Dabrafenib was administered to BALB/c nude mice bearing A375 tumors from PG-D1 and dosed via P daily (QD). Compound 26 was dosed at 1.5 mg/kg (QD), 2 mg/kg (TID), 3 mg/kg (BID), 6 mg/kg (QD) and 10 mg/kg (BID) for 21 days. Compound 141 was dosed at 0.75 mg/kg (BID), 1 mg/kg (TID), 1.5 mg/kg (BID), 3 mg/kg (QD) and 5 mg/kg (BID) for 21 days. Dabrafenib was dosed at 100 mg/kg for 21 days. This study was non-GLP.
One hundred and thirty-eight female BALB/c nude Mus Musculus mice procured from Shanghai Lingchang Biological Science and Technology Co., LTD between the ages of six to eight weeks and with body weight between eighteen and twenty-two grams were used for the study. A spare mouse was also procured.
The A375 tumor cells were maintained in vitro in DMEM medium supplemented with 10% fetal bovine serum and 1% Penicillin-Streptomycin at 37° C. in an atmosphere of 5% CO2 in air. The tumor cells were routinely sub-cultured twice weekly. The cells growing in an exponential growth phase were harvested and counted for tumor inoculation.
Each mouse was inoculated subcutaneously at the right flank with A375 cells (5×10^6) in 0.2 mL of PBS supplemented with Matrigel (PBS: Matrigel=1:1) for tumor development. Animals were grouped for efficacy study on day 15 after tumor inoculation when the average tumor volume reached 220 mm^3. The test articles administration and the animal numbers in each group are shown in the above experimental Table 75.
At the time of routine monitoring, the animals were checked daily for any effects of tumor growth and treatments on normal behavior such as mobility, food and water consumption (by looking only), body weight gain/loss (body weights were measured twice weekly), eye/hair matting and any other abnormal effect as stated in the protocol. Death and observed clinical signs were recorded on the basis of the numbers of animals within each subset.
Prior to the onset of drug treatment, mice were measured for tumor size in two dimensions using a caliper, and the tumor volume (mm^3) was calculated using formula V=0.5 a×b^2 where a and b are the long and short diameters of the tumor in mm, respectively. Mice were randomized into different treatment groups based on the tumor volume.
The major endpoint was to see if the tumor growth could be delayed or mice could be cured. The tumor size was then used for calculations of T/C value. The T/C value (in percent) is an indication of antitumor effectiveness; T and C are the mean volumes of the treated and control groups, respectively on specified day.
TGI was calculated for each group using the formula: TGI (%)=[1−(Ti−T0)/(Ci−C0)]×100; Ti is the average tumor volume of a treatment group on a given day, T0 is the average tumor volume of the treatment group on the day of treatment start, Ci is the average tumor volume of the vehicle control group on the same day with Ti, and C0 is the average tumor volume of the vehicle group on the day of treatment start.
A one-way ANOVA followed by Dunnett's multiple comparison test was performed to compare tumor volume among vehicle group (Group 1) and treatment groups (Group 2-Group 12). All data were analyzed using GraphPad Prism, ns indicates p>0.05, * indicates p<0.05, ** indicates p<0.01, *** indicates p<0.001 and **** indicates p<0.0001.
Tumor growth inhibition of Compound 26, Compound 141 and dabrafenib in the treatment of female BALB/c nude mice bearing A375 xenografts was calculated based on tumor volume measured on […]. TGI and T/C were calculated respectively and the data are detailed in Table 82.

**Q.** How did the Tumor volume (0.75 mg/kg p.o. BID x 21 days, day 0) turn out when `CCN(C)S(=O)(=O)Nc1ccc(F)c(Oc2ccc3ncn(C4CC5(CCN(C6CC7(C6)CN(c6cc8c(cc6F)c(N6CCC(=O)NC6=O)nn8C)C7)CC5)C4)c(=O)c3c2)c1C#N` (centres unmarked) [Compound 141, 6-[2-cyano-3-[[ethyl(methyl)sulfamoyl]amino]-6-fluoro-phenoxy]-3-[7-[2-[3-(2,4-dioxohexahydropyrimidin-1-yl)-5-fluoro-1-methyl-indazol-6-yl]-2-azaspiro[3.3]heptan-6-yl]-7-azaspiro[3.5]nonan-2-yl]-4-oxo-quinazoline] was run?
**A.** Its Tumor volume is 220 ± 16 mm^3.

**Q.** And the Tumor volume (0.75 mg/kg p.o. BID x 21 days, day 4)?
**A.** The Tumor volume was 279 ± 20 mm^3.

**Q.** And the Tumor volume (0.75 mg/kg p.o. BID x 21 days, day 7)?
**A.** Its Tumor volume is 299 ± 25 mm^3.

**Q.** What about the Tumor volume (0.75 mg/kg p.o. BID x 21 days, day 11) of the same compound?
**A.** Its Tumor volume is 305 ± 27 mm^3.

**Q.** And the Tumor volume (0.75 mg/kg p.o. BID x 21 days, day 14)?
**A.** The Tumor volume was 333 ± 29 mm^3.

**Q.** What about the Tumor volume (0.75 mg/kg p.o. BID x 21 days, day 18) of the same compound?
**A.** The Tumor volume was 465 ± 48 mm^3.

**Q.** What about the Tumor volume (0.75 mg/kg p.o. BID x 21 days, day 21) of the same compound?
**A.** The Tumor volume was 634 ± 67 mm^3.

**Q.** And the Tumor volume (0.75 mg/kg p.o. BID x 21 days, day 25 (dosing-free regrowth))?
**A.** Its Tumor volume is 1230 ± 98 mm^3.

**Q.** And the Tumor volume (0.75 mg/kg p.o. BID x 21 days, day 28 (dosing-free regrowth))?
**A.** The Tumor volume was 1536 ± 103 mm^3.

**Q.** What about the Tumor volume (0.75 mg/kg p.o. BID x 21 days, day 32 (dosing-free regrowth)) of the same compound?
**A.** Its Tumor volume is 1821 ± 140 mm^3.

**Q.** And the Tumor volume (0.75 mg/kg p.o. BID x 21 days, day 35 (dosing-free regrowth))?
**A.** The Tumor volume was 2230 ± 178 mm^3.

**Q.** And the Tumor volume (0.75 mg/kg p.o. BID x 21 days, day 39 (dosing-free regrowth))?
**A.** The Tumor volume was 2413 ± 86 mm^3.

**Q.** What about the Tumor volume (0.75 mg/kg p.o. BID x 21 days, day 42 (dosing-free regrowth)) of the same compound?
**A.** The Tumor volume was 2786 ± 127 mm^3.

**Q.** What about the Tumor volume (0.75 mg/kg p.o. BID x 21 days, day 46 (dosing-free regrowth)) of the same compound?
**A.** Its Tumor volume is 3213 ± 101 mm^3.

**Q.** And the “Tumor Size on PG-D21 (Mean ± SEM)” value (0.75 mg/kg p.o. BID × 21 days)?
**A.** The value was 634 ± 67 mm^3.

**Q.** What about the T/C (0.75 mg/kg p.o. BID × 21 days) of the same compound?
**A.** The T/C was 33.7%.

**Q.** And the TGI (0.75 mg/kg p.o. BID × 21 days)?
**A.** Its TGI is 75.1%.

**Q.** What about the Tumor volume (1 mg/kg p.o. TID x 21 days, day 0) of the same compound?
**A.** Its Tumor volume is 220 ± 16 mm^3.

**Q.** What about the Tumor volume (1 mg/kg p.o. TID x 21 days, day 4) of the same compound?
**A.** The Tumor volume was 199 ± 14 mm^3.

**Q.** And the Tumor volume (1 mg/kg p.o. TID x 21 days, day 7)?
**A.** The Tumor volume was 174 ± 12 mm^3.

**Q.** What about the Tumor volume (1 mg/kg p.o. TID x 21 days, day 11) of the same compound?
**A.** Its Tumor volume is 131 ± 11 mm^3.

**Q.** And the Tumor volume (1 mg/kg p.o. TID x 21 days, day 14)?
**A.** Its Tumor volume is 99 ± 11 mm^3.

**Q.** And the Tumor volume (1 mg/kg p.o. TID x 21 days, day 18)?
**A.** The Tumor volume was 117 ± 18 mm^3.

**Q.** And the Tumor volume (1 mg/kg p.o. TID x 21 days, day 21)?
**A.** The Tumor volume was 138 ± 22 mm^3.

**Q.** What about the Tumor volume (1 mg/kg p.o. TID x 21 days, day 25 (dosing-free regrowth)) of the same compound?
**A.** Its Tumor volume is 303 ± 94 mm^3.

**Q.** And the Tumor volume (1 mg/kg p.o. TID x 21 days, day 28 (dosing-free regrowth))?
**A.** The Tumor volume was 492 ± 132 mm^3.

**Q.** And the Tumor volume (1 mg/kg p.o. TID x 21 days, day 32 (dosing-free regrowth))?
**A.** The Tumor volume was 718 ± 197 mm^3.

**Q.** What about the Tumor volume (1 mg/kg p.o. TID x 21 days, day 35 (dosing-free regrowth)) of the same compound?
**A.** Its Tumor volume is 933 ± 232 mm^3.

**Q.** What about the Tumor volume (1 mg/kg p.o. TID x 21 days, day 39 (dosing-free regrowth)) of the same compound?
**A.** Its Tumor volume is 1233 ± 240 mm^3.

**Q.** And the Tumor volume (1 mg/kg p.o. TID x 21 days, day 42 (dosing-free regrowth))?
**A.** The Tumor volume was 1591 ± 302 mm^3.

**Q.** And the Tumor volume (1 mg/kg p.o. TID x 21 days, day 46 (dosing-free regrowth))?
**A.** The Tumor volume was 2017 ± 443 mm^3.

**Q.** What about the Tumor volume (1 mg/kg p.o. TID x 21 days, day 49 (dosing-free regrowth)) of the same compound?
**A.** Its Tumor volume is 2117 ± 505 mm^3.

**Q.** What about the Tumor volume (1 mg/kg p.o. TID x 21 days, day 53 (dosing-free regrowth)) of the same compound?
**A.** The Tumor volume was 2166 ± 495 mm^3.

**Q.** And the Tumor volume (1 mg/kg p.o. TID x 21 days, day 56 (dosing-free regrowth))?
**A.** The Tumor volume was 2162 ± 633 mm^3.

**Q.** What about the “Tumor Size on PG-D21 (Mean ± SEM)” value (1 mg/kg p.o. TID × 21 days) of the same compound?
**A.** The value was 138 ± 22 mm^3.

**Q.** And the T/C (1 mg/kg p.o. TID × 21 days)?
**A.** Its T/C is 7.3%.

**Q.** And the TGI (1 mg/kg p.o. TID × 21 days)?
**A.** Its TGI is 104.9%.

**Q.** And the Tumor volume (1.5 mg/kg p.o. BID x 21 days, day 0)?
**A.** Its Tumor volume is 220 ± 15 mm^3.

**Q.** And the Tumor volume (1.5 mg/kg p.o. BID x 21 days, day 4)?
**A.** The Tumor volume was 245 ± 18 mm^3.

**Q.** And the Tumor volume (1.5 mg/kg p.o. BID x 21 days, day 7)?
**A.** The Tumor volume was 213 ± 17 mm^3.

**Q.** What about the Tumor volume (1.5 mg/kg p.o. BID x 21 days, day 11) of the same compound?
**A.** The Tumor volume was 180 ± 13 mm^3.

**Q.** And the Tumor volume (1.5 mg/kg p.o. BID x 21 days, day 14)?
**A.** The Tumor volume was 159 ± 13 mm^3.

**Q.** And the Tumor volume (1.5 mg/kg p.o. BID x 21 days, day 18)?
**A.** The Tumor volume was 166 ± 14 mm^3.

**Q.** What about the Tumor volume (1.5 mg/kg p.o. BID x 21 days, day 21) of the same compound?
**A.** The Tumor volume was 208 ± 21 mm^3.

**Q.** And the Tumor volume (1.5 mg/kg p.o. BID x 21 days, day 25 (dosing-free regrowth))?
**A.** The Tumor volume was 476 ± 63 mm^3.

**Q.** And the Tumor volume (1.5 mg/kg p.o. BID x 21 days, day 28 (dosing-free regrowth))?
**A.** The Tumor volume was 773 ± 76 mm^3.

**Q.** What about the Tumor volume (1.5 mg/kg p.o. BID x 21 days, day 32 (dosing-free regrowth)) of the same compound?
**A.** The Tumor volume was 946 ± 93 mm^3.
